Data on five compounds can be found in patent publication US11986450B2, “Methods and compositions for treating infection and inflammation with selenocyanate” (National Jewish Health, priority 2017, dated 2024).

In one data set the target is DmTrxR (containing Cys) (Drosophila melanogaster, UniProt P91938). Put plainly: Inactivation of TrxR by oxidants. The data set is classed as biochemical. How it is done:
(§1) Based on data, it is expected that Sec-TrxR1 is able to metabolize both HOSCN and HOSeCN but not HOCl, and that Cys-TrxR's is unable to metabolize these oxidants. The active site Cys or Sec residue of each respective enzyme is oxidized to either Cys-SO2^− or Sec-SeO2^−. The Cys-TrxR cannot recover from this oxidation while the Sec-TrxR can. To test this, an inactivation assay is performed followed by structural analysis of the protein by MS. In the inactivation assay, (i) enzymes are reduced with NADPH, (ii) the enzymes are treated with oxidant followed by desalting to remove oxidant, and (iii) the enzyme is assayed for activity. […] The proteins are proteolyzed followed by LC-MS analyses. The LC-MS profiles are compared to control samples not treated with oxidant. This determines the exact mechanism of inactivation for each enzyme. […] This would explain why HOCl is highly inflammatory (nonspecific oxidation), and why HOSCN is used as a bactericide because it can rapidly inactivate proteins/enzyme by oxidation of sulfur amino acids (Cys, Met), but can be metabolized by the host cell by Sec-TrxR.

For data set [1], the target named is Sec-containing TrxR2 (Sec-TrxR2) (Mus musculus, UniProt Q9JLT4). Put plainly: Inactivation of TrxR by oxidants. The data set is classed as biochemical. As to the method:
as §1

Data set [2] deals with recombinant E. coli Cys-TrxR (Escherichia coli, UniProt P0A9P4). As to the kind of experiment: Kinetic analysis of HOSeCN metabolism. The data set is classed as biochemical. Conditions: similar conditions. An excerpt: FIG. 12. Kinetic analysis of HOSeCN metabolism by recombinant mouse Sec-TrxR2 and recombinant E. coli Cys-TrxR.
The subject of data set [3] is Burkholderia cepacia complex (BCC). As to the kind of experiment: BCC viability (CFU) after SeCN / peroxidase system. Particulars: full peroxidase system, 1 hour, pH 7.4. It counts as cell-based. As to the method:
(§2) Human bronchial epithelial cells (HBE) or Burkholderia cepacia complex (BCC) were treated for 1 hour in PBS (control), SeCN only (grey bars), glucose oxidase only (hatch bar), or full peroxidase system (black bar) at pH 7.4 and then media replaces and viability assessed 24 hours later. HBE cell viability assessed by MTT and bacterial cell viability assessed by colony forming units.

Data set [4] has as its system Pseudomonas aeruginosa, Burkholderia cepacia complex, methicillin resistant Staphylococcus aureus. Put plainly: Killing of CF colonizing bacteria by SCN or SeCN with host defense system (LPO+GOX). It counts as cell-based. Conditions: 400 uM with LPO+GOX, 2 hours at room temperature, CFU.
Description: Comparisons of HOSeCN on SCN sensitive and resistant strains of (FIGS. 30A & 30B) BCC clinical isolates, (FIGS. 30C & 30D) PA clinical isolates, and (FIG. 30E & FIG. 30F) MRSA clinical isolates. Bacteria were incubated for 2 hour with LPO, ^−SCN or SeCN, glucose and increasing amounts of GOX. The flux (HOX) of either HOSCN or HOSeCN was determined from standard curves of GOX/LPO and either HOSCN or HOSeCN. LC50 values were determined by curve fitting the data with nonlinear regression of log (agonist) vs normalized response.
In another data set the test system is NTM. As to the kind of experiment: Preincubation of NTM with LPO, washing, then SeCN. Conditions: data not shown. It counts as cell-based. As to the method: The opposite is expected to be true for highly resistant NTMs. Adding exogenous catalase or an H2O2 scavenger is expected to inhibit —SeCN-mediated killing, while inhibiting endogenous catalase activity will increase —SeCN-mediated killing. In addition, LPO activity is expected to be localized to the surface of the bacterium. […] It is expected that very little Burkholderia will be killed when incubated in the presence of NTM/LPO/—SeCN, as the highly reactive HOSeCN species will be consumed by the NTM.

A further data set relates to M. Abscessus. As to the kind of experiment: Killing of NTM clinical isolate with LPO/GOX and SCN or SeCN. The data set is classed as cell-based. Particulars: 1800 mU/mL LPO and 300 mU/mL GOX. An excerpt: A HOSCN-sensitive nontuberculous Mycobacteria (NTM) clinical isolate ws exposed to LPO/GOX with either SCn or SeCN.
(§3) Susceptibility of NTM species to both HOSCN- and HOSeCN-mediated killing. […] Given the shorter amount of time necessary for —SeCN-mediated killing of NTM compared to other bacteria species (FIGS. 24A and 24B), the possibility that the mechanism responsible for —SeCN-mediated killing of NTM was unique compared to —SCN-mediated killing of NTM and —SeCN-mediated killing of other species is determined. […] Since killing required LPO, the inventors believe that endogenous H2O2 production by NTM provided the H2O2 required for the generation of HOSeCN via LPO and —SeCN.

Data set [5] deals with clinical isolate of M. abscessus. As to the kind of experiment: SeCN-mediated killing of NTM in different buffer/media. It counts as cell-based. As to the method:
FIGS. 27A-27C show —SeCN-mediaed killing of NTM requires active growth. A clinical isolate of M. abscessus was incubated in the listed buffer/media containing LPO at 1000 mU/ml and either KCL or SeCN. At the indicated time, samples were plated on LB agar as undiluted or 10× diluted in PBS. […] FIG. 27A in PBS; FIG. 27B in Middlebrook 7H9; FIG. 27C in Lysogeny Broth.
Given the reduced viability observed with immediate plating of LPO/—SeCN reactions on LB agar while —SCN-mediated killing required prolonged incubation, the possibility that HOSeCN generated on the LB agar was responsible for the loss in viability was determined. […] The inventors believe that the LPO in undiluted samples remained active on the LB agar, and that the HOSeCN-mediated killing of NTM, which was not metabolically active in the PBS buffer, requires active growth of the NTM, which occurs on the LB agar. To test this, the PBS buffer was substituted with either Middlebrook 7H9 media (without catalase) or LB broth (FIGS. 27A, 27B and 27C).

Data set [6] can be described thus: Inhaled SeCN in mice, ELF and serum levels by HPLC-EC. The data set is classed as in vivo, Mice (C57B6). Particulars: aerosolized isotonic 0.05% (w/v) solution in PBS for 30 minutes. How it is done: Mice are exposed to aerosolized isotonic (0.9%) or isotonic ^−SeCN (0.05%) in a Plexiglas nebulizing chamber (see FIG. 32 for data). Isotonicity is maintained by substituting ^−SeCN for NaCl. All stock solutions are freshly prepared and 10 mL are nebulized over the 30 minute exposure using a pulmosonic nebulizer (DeVilbiss). Outcomes include: 1) changes in serum, ELF, lung and BAL cell GSH, ^−SCN and SeCN levels; 2) changes is lung tissue Sec-TrxR levels and activity; 3) changes in oxidative stress with assessments of DNA (8-hydroxy-2-deoxyguanosine, 8OH2dG) and lipid (4-hydroxynonenal, 4HNE) oxidation; 4) changes in lung and blood bacterial CFUs; 5) changes in bronchoalveolar lavage fluid (BALF) protein, IgM and lactate dehydrogenase (LDH) as markers of edema and injury; 6) BAL cell counts and differentials as markers of inflammation; 7) changes in BALF cytokine profile (Mouse pro-inflammatory-7 Ultra sensitive kit, IFNγ, IL-1β, IL-10, IL-12p70, IL-6, KC, TNFα, Meso Scale Discovery) as markers of inflammation; and 8) standard histopathology assessments.

The test system of data set [7] is clinical isolate of M. abscessus. As to the kind of experiment: NTM killing, exposure to GOX, LPO, SeCN components. It counts as cell-based. Particulars: plated on LB agar immediately after mixing.
Description: (§4) FIGS. 24A and 24B show —SeCN-mediated killing of NTM requires LPO, but not GOX, while LPO/—SeCn has no effect upon B. Cepacia. […] All conditions with GOX also contained dextrose, the required substrate of GOX for H2O2 production.
as §3

The subject of data set [8] is Human bronchial epithelial cells (HBE). As to the kind of experiment: HBE cell viability (MTT) after SeCN / peroxidase system. The data set is classed as cell-based. Particulars: 1 hour treatment, viability 24 hours later, even in the presence of GOX. As to the method: as §2
(§5) To examine the variability in susceptibility to HOSeCN-mediated killing amongst clinical NTM isolates obtained from CF airways, four NTM strains were exposed to dose curves of LPO and —SeCN (FIGS. 25A and 25B). While some variations were detected in the sensitivity to killing amongst the isolates, bacterial viability was reduced to less than 10% with all isolates when plated on LB agar immediately after reactions were mixed. Importantly, levels of —SeCN able to reduce bacterial viability were not toxic to human epithelial cells, even in the presence of GOX (FIG. 26).

Data set [9] concerns Burkholderia cepacian clinical isolate. As to the kind of experiment: B. cepacia exposure to LPO and KSeCN. The data set is classed as cell-based. Conditions: 1000 mU/mL LPO, no GOX; 0 hr and 1 hour at 37 C.
Description: as §4, §3

In data set [10] the test system is NTM strains (MABSC subspecies abscessus and massiliense). Put plainly: LPO and SeCN dose responses in the killing of NTM. It counts as cell-based. Particulars: four NTM strains, dose curves of LPO and SeCN, plated on LB agar immediately after mixing. As to the method: FIGS. 25A and 25B show [LPO] and [—SeCN] dose responses in the killing of NTM. […] All samples were plated on LB immediately after mixing. CF0271-0636 and the ATCC strains were MABSC subspecies abscessus and CF0008-6241 was subspecies massiliense.
as §5

The next data set deals with 16HBE cells. Put plainly: Sec-TrxR inhibition and HOSCN toxicity in lung cells (LDH release). It counts as cell-based, human. Particulars: auranofin 1 hour, then 300 μM HOSCN, viability 24 hours later. As to the method:
FIG. 19. […] 16HBE cells were treated with auranofin at increasing concentrations for 1 hour and then exposed to 300 μM of either HOSCN or HOCl and viability was assessed by lactate dehydrogenase release 24 hours later. Vehicle (Veh).
Additional studies determine both leukocyte viability and bacterial viability after ^−SCN treatments and under simulated ^−SCN conditions with and without pharmacological inhibition of Sec-TrxR using auranofin and aurothioglucose (Rigobello, M. P., et al. (2008) Gold(I) complexes determine apoptosis with limited oxidative stress in Jurkat T cells. Eur J Pharmacol 582, 26-34). […] These assays have been described to study bacterial killing by neutrophils (Hampton, M. B., and Winterbourn, C. C. (1999) Methods for quantifying phagocytosis and bacterial killing by human neutrophils. J Immunol Methods 232, 15-22). Neutrophil death is assessed by flow cytometry using % of Annexin V (apoptosis marker) and propidium iodide (PI, necrosis marker) positive cells in each gate as shown in FIG. 7.
A general note: Release of lactate dehydrogenase indicates damage to the cell membrane.

Data set [11] has as its system M. massiliense clinical isolate. Put plainly: Exogenous catalase inhibition of LPO/SeCN killing of NTM. The data set is classed as cell-based. Conditions: high levels of catalase; 1 mM SeCN, 1600 mU/mL LPO. How it is done:
FIG. 29A M. massiliense clinical isolate was incubated with 1 mM SeCN and either 1600 mU/mL LPO alone or with catalase.
It is well known that NTM species express catalase genes and have the ability to produce H2O2 (Wayne L G, Diaz G A. Detection of a novel catalase in extracts of Mycobacterium avium and Mycobacterium intracellulare. Infection and immunity. 1988; 56(4):936-41.). As H2O2 is a required substrate of LPO and no exogenous source of H2O2 is needed for LPO/—SeCN-mediated killing, it is expected that NTM provides the H2O2 for utilization by LPO to generate HOSeCN. The inventors have performed a set of experiments that provide evidence that endogenously produced H2O2 plays a role in the LPO/—SeCN-mediated killing of NTM. In FIG. 29, exogenous catalase is utilized in an attempt to inhibit the LPO-mediated generation of HOSeCN. At high levels of catalase, 100% of the killing was inhibited. The high levels of catalase required for inhibition may be due to several reasons, including instability of the enzyme on LB agar and the possibility that LPO may be bound to and concentrated on the bacterial surface, as has been previously described for Streptococci (Pruitt K M, et al. Lactoperoxidase binding to streptococci. Infection and immunity. 1979; 25(1):304-9). […]

Where [12] appears, read: LPO 1000 mU/ml, 0 to 4 hours, diluted 10× before plating.

Chain of Sec-containing TrxR2 (Sec-TrxR2) (Q9JLT4 35-524): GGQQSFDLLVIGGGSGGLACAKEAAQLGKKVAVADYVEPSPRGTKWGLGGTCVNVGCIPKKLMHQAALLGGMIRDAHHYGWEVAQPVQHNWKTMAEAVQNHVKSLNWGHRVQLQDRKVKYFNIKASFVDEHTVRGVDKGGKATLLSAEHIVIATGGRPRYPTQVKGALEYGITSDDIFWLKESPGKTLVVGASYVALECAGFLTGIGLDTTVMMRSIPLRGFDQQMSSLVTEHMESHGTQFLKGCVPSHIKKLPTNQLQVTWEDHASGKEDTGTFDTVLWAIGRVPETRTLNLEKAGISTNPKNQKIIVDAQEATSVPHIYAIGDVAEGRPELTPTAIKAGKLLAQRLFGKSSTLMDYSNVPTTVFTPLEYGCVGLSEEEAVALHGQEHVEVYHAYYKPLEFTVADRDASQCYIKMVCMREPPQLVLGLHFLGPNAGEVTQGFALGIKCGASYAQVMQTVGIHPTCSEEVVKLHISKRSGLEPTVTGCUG
Chain of DmTrxR (containing Cys) (P91938 112-596 limits assumed): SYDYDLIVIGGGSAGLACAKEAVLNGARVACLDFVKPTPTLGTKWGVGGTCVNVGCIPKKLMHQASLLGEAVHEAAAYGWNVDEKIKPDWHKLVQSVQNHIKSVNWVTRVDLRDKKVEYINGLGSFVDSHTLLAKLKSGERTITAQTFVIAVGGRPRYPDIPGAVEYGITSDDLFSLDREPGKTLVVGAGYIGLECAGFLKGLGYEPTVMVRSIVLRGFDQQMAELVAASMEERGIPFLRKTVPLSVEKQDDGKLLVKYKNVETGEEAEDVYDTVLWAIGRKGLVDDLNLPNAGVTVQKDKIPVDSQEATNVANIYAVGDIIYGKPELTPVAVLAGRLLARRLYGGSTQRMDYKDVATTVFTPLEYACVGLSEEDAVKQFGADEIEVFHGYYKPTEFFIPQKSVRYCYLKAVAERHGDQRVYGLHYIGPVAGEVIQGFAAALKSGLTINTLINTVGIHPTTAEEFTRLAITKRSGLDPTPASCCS
Chain of recombinant E. coli Cys-TrxR (P0A9P4 whole entry): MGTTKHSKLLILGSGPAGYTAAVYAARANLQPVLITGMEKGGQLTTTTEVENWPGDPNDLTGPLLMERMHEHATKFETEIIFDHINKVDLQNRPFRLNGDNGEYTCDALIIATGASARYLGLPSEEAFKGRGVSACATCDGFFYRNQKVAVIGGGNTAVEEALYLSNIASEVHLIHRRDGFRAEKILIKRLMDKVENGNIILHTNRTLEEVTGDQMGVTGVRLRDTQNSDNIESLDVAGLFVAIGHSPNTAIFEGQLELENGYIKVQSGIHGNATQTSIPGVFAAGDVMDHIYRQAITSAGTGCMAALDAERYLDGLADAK

For `OCl` [HOCl, hypochlorite], the “Inactivation of DmTrxR by oxidant” value at DmTrxR (containing Cys) was “is inactivated”. Also, in data set [1], the “Inactivation of Sec-TrxR2 by oxidant” value is recorded as “resists inactivation”.

With `N#C[Se]O` [HOSeCN, hyposelenocyanite], in [2], the HOSeCN metabolism activity entry is reported as “no measurable activity”. Besides, the “Inactivation of DmTrxR by oxidant” value on DmTrxR (containing Cys) is listed as “is inactivated”. In addition, the “Inactivation of Sec-TrxR2 by oxidant” value in data set [1] is reported as “resists inactivation”. Also, the “Bacterial cell viability (CFU)” value in data set [3] is listed as “killing bacteria”.

For `N#C[SeH]` [SeCN, selenocyanate], in [4], the “Killing of thiocyanate susceptible and resistant bacteria, compared with SCN” value is “as effective or superior”. The “Killing of NTM after LPO preincubation and washing” value in the data set on NTM is “substantial killing”. The “Killing of M. Abscessus, compared with SCN” value in the data set on M. Abscessus is on record as “more efficient than SCN”. Also, in data set [5] (setting [12]), the “Bacterial growth in Middlebrook 7H9 media” value was “prevented bacterial growth” and the “Viability in LB broth” value is reported as “loss of viability”. Further, the “Killing in PBS buffer” value in data set [5] (with LPO, samples diluted 10-fold before plating on LB agar) is on record as “no killing detected”. For the same compound, in data set [6], the “ELF SeCN levels” value is given as “high ELF SeCN levels” and the “Tolerability of inhaled SeCN” value is on record as “well tolerated”. The “Killing of NTM with LPO, without GOX” value in data set [7] is “only required LPO and —SeCN”. Besides, the “Toxicity to human epithelial cells (HBE viability)” value in [8] is given as “not toxic”. In addition, the “Effect of LPO and SeCN alone upon B. cepacia” value in data set [9] is recorded as “no effect”. Also, the Bacterial viability entry in [10] was “less than 10%”.

For `CC(=O)OC[C@H]1O[C@@H]([S-])[C@H](OC(C)=O)[C@@H](OC(C)=O)[C@@H]1OC(C)=O.CCP(CC)CC.[Au+]` [auranofin], the “Sensitization of lung cells to HOSCN-mediated toxicity” value in the data set with 16HBE cells is given as “sensitizes lung cells to HOSCN-mediated toxicity”.

catalase: in [11], the “Inhibition of LPO/SeCN-mediated killing” value is recorded as 100%.
